Results reported in patent US10689354B2, “Aminoazole derivative” (Teijin Pharma Limited, priority 2015, dated 2020).

Tests used:
[1] = biological target: T1, androgen receptor (AR-LBD) (Rattus norvegicus, UniProt P15207); assay: Evaluation of androgen receptor affinity (PolarScreen Androgen Receptor Competitor Assay Kit, Red; fluorescence polarization); settings: 22° C. for 5 hours, relative to binding rate of 1 μM DHT, read-out: AR affinity (pEC50) (converted)
T1 construct: 5 μL of 2×AR-LBD/Fluoromone AL Red Complex contained in the kit; purchased Invitrogen
T1 sequence (P15207 651-882 limits assumed): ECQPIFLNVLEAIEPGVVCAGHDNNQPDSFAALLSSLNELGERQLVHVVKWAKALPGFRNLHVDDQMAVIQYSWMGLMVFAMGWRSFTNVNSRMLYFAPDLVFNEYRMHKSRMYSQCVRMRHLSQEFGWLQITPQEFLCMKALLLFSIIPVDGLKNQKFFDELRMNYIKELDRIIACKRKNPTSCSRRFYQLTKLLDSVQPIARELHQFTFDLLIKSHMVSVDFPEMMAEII
Summary of the method: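 pEC50 values reflect tracer displacement from AR-LBD (Fluoromone AL Red complex) measured by fluorescence polarization after 5 h at 22° C, normalized to 1 μM DHT and fitted with a 4-parameter model.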

human androgen receptor = biological target: T2, human androgen receptor (Homo sapiens, UniProt P10275); assay: Reporter assay of an androgen receptor responsive sequence (luciferase, transiently transfected HEK293 cells); format: cell-based; settings: 24 hours incubation, relative to activity of 100 nM DHT, read-out: AR transcriptive activity (pEC50) (converted)
T2 construct: expressed in transfected cells; host or cells: HEK293
T2 sequence (P10275 1-920): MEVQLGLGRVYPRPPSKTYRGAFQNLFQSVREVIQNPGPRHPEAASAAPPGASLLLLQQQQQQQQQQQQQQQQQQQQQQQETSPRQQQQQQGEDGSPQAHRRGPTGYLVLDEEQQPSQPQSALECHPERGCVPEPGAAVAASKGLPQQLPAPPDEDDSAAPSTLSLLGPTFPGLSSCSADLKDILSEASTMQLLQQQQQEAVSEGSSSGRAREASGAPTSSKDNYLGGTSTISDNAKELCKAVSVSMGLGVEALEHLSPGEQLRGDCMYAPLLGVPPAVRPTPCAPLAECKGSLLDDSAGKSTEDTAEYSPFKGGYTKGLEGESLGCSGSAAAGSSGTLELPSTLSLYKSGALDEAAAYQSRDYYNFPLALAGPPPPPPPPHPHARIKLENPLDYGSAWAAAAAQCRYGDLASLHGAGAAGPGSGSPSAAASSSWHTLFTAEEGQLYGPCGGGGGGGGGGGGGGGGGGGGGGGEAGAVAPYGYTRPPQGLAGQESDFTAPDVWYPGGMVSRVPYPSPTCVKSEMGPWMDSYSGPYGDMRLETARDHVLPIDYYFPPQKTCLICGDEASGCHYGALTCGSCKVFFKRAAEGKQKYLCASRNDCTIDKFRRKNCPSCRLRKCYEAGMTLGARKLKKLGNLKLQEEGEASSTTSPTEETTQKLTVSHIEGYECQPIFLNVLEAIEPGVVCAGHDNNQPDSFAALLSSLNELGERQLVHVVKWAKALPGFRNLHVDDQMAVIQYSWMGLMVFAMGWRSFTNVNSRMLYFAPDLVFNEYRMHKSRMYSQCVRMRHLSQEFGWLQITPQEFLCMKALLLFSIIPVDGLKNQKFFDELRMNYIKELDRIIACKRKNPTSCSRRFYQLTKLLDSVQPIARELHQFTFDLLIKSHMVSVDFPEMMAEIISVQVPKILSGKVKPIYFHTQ
Summary of the method: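 HEK293 cells transiently transfected for 3 h with ARE-firefly luciferase, full-length human AR and TK-Renilla plasmids, then exposed to compound for 24 h at 37 °C in 5% charcoal-treated FBS/DMEM. Dual-Glo luminescence read; pEC50 from 4-parameter fit relative to 100 nM DHT.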

EC50 [1] [nM] | EC50 (human androgen receptor) [nM] | Compound
501 | > 10000 | Cc1sc(N(CCC2CCCCC2)Cc2ccc(OC(F)(F)F)cc2)nc1C(=O)NS(=O)(=O)C(F)(F)F [Compound 724, 2-[2-cyclohexylethyl-[[4-(trifluoromethoxy)phenyl]methyl]amino]-5-methyl-N-(trifluoromethylsulfonyl)thiazole-4-carboxamide]
63.1 | 631 | Cc1sc(N(Cc2ccc([S+]([O-])C(F)(F)F)cc2)c2ccc(C#N)cc2)nc1C(=O)NS(C)(=O)=O (stereo not shown) [Compound 419, 2-[4-cyano-N-[[4-(trifluoromethylsulfinyl)phenyl]methyl]anilino]-5-methyl-N-methylsulfonyl-thiazole-4-carboxamide]
79.4 | 2510 | Cc1sc(N(CCOC2CCCCC2)c2ccc(C#N)cc2)nc1C(=O)NS(C)(=O)=O [Compound 370, 2-[4-cyano-N-[2-(cyclohexoxy)ethyl]anilino]-5-methyl-N-methylsulfonyl-thiazole-4-carboxamide]
200 | > 10000 | Cc1oc(N(Cc2ccc(Cl)cc2)c2ccc(C#N)cc2)nc1C(=O)NS(=O)(=O)C1CC1 [Compound 628, 2-[N-[(4-chlorophenyl)methyl]-4-cyano-anilino]-N-cyclopropylsulfonyl-5-methyl-oxazole-4-carboxamide]
63.1 | 200 | Cc1sc(N(Cc2ncc(C(F)(F)F)cc2F)c2ccc(C#N)cc2)nc1C(=O)NS(C)(=O)=O [Example 170, 2-[4-cyano-N-[[3-fluoro-5-(trifluoromethyl)-2-pyridyl]methyl]anilino]-5-methyl-N-methylsulfonyl-thiazole-4-carboxamide]
25.1 | 50.1 | Cc1sc(N(Cc2ccc3ccccc3c2)c2ccc(C#N)cc2)nc1C(=O)NS(C)(=O)=O [Compound 25, 2-[4-cyano-N-(2-naphthylmethyl)anilino]-5-methyl-N-methylsulfonyl-thiazole-4-carboxamide]
126 | 158 | Cc1sc(N(Cc2ccc(Cl)cc2)c2ccc(C(F)(F)F)nc2)nc1C(=O)NS(C)(=O)=O [Compound 470, 2-[(4-chlorophenyl)methyl-[6-(trifluoromethyl)-3-pyridyl]amino]-5-methyl-N-methylsulfonyl-thiazole-4-carboxamide]
126 | 200 | Cc1sc(N(Cc2nc3ccccc3s2)c2ccc(C#N)cc2)nc1C(=O)NS(C)(=O)=O [Compound 497, 2-[N-(1,3-benzothiazol-2-ylmethyl)-4-cyano-anilino]-5-methyl-N-methylsulfonyl-thiazole-4-carboxamide]
20 | 100 | Cc1sc(N(CCc2ccc(C#N)cc2)Cc2ccc(Cl)cc2)nc1C(=O)NS(=O)(=O)Cc1cccnc1 [Compound 321, 2-[(4-chlorophenyl)methyl-[2-(4-cyanophenyl)ethyl]amino]-5-methyl-N-(3-pyridylmethylsulfonyl)thiazole-4-carboxamide]
63.1 | 39.8 | CS(=O)(=O)NC(=O)c1nc(N(Cc2ccc(F)cc2)c2ccc(C#N)cc2)sc1Br [Example 244, 5-bromo-2-[4-cyano-N-[(4-fluorophenyl)methyl]anilino]-N-methylsulfonyl-thiazole-4-carboxamide]
31.6 | 126 | Cc1sc(N(CCc2ccc(Cl)cc2)Cc2ccccc2)nc1C(=O)NS(C)(=O)=O [Example 299, 2-[benzyl-[2-(4-chlorophenyl)ethyl]amino]-5-methyl-N-methylsulfonyl-thiazole-4-carboxamide]
631 | > 10000 | Cc1sc(N(Cc2ccc(Br)cc2C#N)c2ccc(C#N)cc2)nc1C(=O)NS(C)(=O)=O [Example 182, 2-[N-[(4-bromo-2-cyano-phenyl)methyl]-4-cyano-anilino]-5-methyl-N-methylsulfonyl-thiazole-4-carboxamide]
39.8 | 794 | CCc1oc(N(Cc2cccc(Cl)c2)c2ccc(C#N)cc2)nc1C(=O)NS(C)(=O)=O [Compound 631, 2-[N-[(3-chlorophenyl)methyl]-4-cyano-anilino]-5-ethyl-N-methylsulfonyl-oxazole-4-carboxamide]
79.4 | > 10000 | Cc1sc(N(CCCCOc2ccccc2)c2ccc(C#N)cc2)nc1C(=O)NS(C)(=O)=O [Compound 369, 2-[4-cyano-N-(4-phenoxybutyl)anilino]-5-methyl-N-methylsulfonyl-thiazole-4-carboxamide]
316 | > 10000 | Cc1sc(N(CCc2ccccc2F)c2ccc(C#N)cc2)nc1C(=O)NS(C)(=O)=O [Compound 80, 2-[4-cyano-N-[2-(2-fluorophenyl)ethyl]anilino]-5-methyl-N-methylsulfonyl-thiazole-4-carboxamide]
158 | 1000 | Cc1sc(N(CCc2ccsc2)Cc2ccccc2)nc1C(=O)NS(C)(=O)=O [Example 313, 2-[benzyl-[2-(3-thienyl)ethyl]amino]-5-methyl-N-methylsulfonyl-thiazole-4-carboxamide]
31.6 | 79.4 | COc1ccc(CN(c2ccc(C#N)cc2)c2nc(C(=O)NS(C)(=O)=O)c(C)s2)c(F)c1F [Compound 112, 2-[4-cyano-N-[(2,3-difluoro-4-methoxy-phenyl)methyl]anilino]-5-methyl-N-methylsulfonyl-thiazole-4-carboxamide]
20 | 100 | Cc1sc(N(CCc2ccc(C#N)cc2)Cc2ccc(OC(F)(F)F)cc2)nc1C(=O)NS(=O)(=O)Cc1cccnc1 [Compound 324, 2-[2-(4-cyanophenyl)ethyl-[[4-(trifluoromethoxy)phenyl]methyl]amino]-5-methyl-N-(3-pyridylmethylsulfonyl)thiazole-4-carboxamide]
158 | 1000 | Cc1sc(N(Cc2ccco2)c2ccc(C#N)cc2)nc1C(=O)NS(C)(=O)=O [Compound 87, 2-[4-cyano-N-(2-furylmethyl)anilino]-5-methyl-N-methylsulfonyl-thiazole-4-carboxamide]
79.4 | 50.1 | Cc1sc(N(Cc2cccc(F)c2F)c2ccc(C#N)cc2)nc1C(=O)NS(C)(=O)=O [Compound 102, 2-[4-cyano-N-[(2,3-difluorophenyl)methyl]anilino]-5-methyl-N-methylsulfonyl-thiazole-4-carboxamide]
39.8 | 501 | Cc1oc(N(CCc2ccc(Cl)cc2)Cc2ccc(C(F)(F)F)nc2)nc1C(=O)NS(C)(=O)=O [Compound 551, 2-[2-(4-chlorophenyl)ethyl-[[6-(trifluoromethyl)-3-pyridyl]methyl]amino]-5-methyl-N-methylsulfonyl-oxazole-4-carboxamide]
> 2000 | > 10000 | Cc1sc(N(CC2CCN(C)CC2)c2ccc(C#N)cc2)nc1C(=O)NS(C)(=O)=O [Compound 351, 2-[4-cyano-N-[(1-methyl-4-piperidyl)methyl]anilino]-5-methyl-N-methylsulfonyl-thiazole-4-carboxamide]
126 | > 10000 | CCC(CC)CN(c1ccc(C#N)cc1)c1nc(C(=O)NS(C)(=O)=O)c(C)s1 [Compound 65, 2-[4-cyano-N-(2-ethylbutyl)anilino]-5-methyl-N-methylsulfonyl-thiazole-4-carboxamide]
